Data: patent US8399417B2, “Food” (Ajinomoto Co., Inc., priority 2007, dated 2013)

How the values were obtained:
Format in all cases: in vivo, human
[1] = Fat-like richness and smoothness imparted to low-fat yogurt, quantitative sensory evaluation test; conditions: Table 10; for Fat-like richness / Smoothness: n=12, control 0, strong 3, very strong 5 points
Protocol: (§1) The quantitative sensory evaluation test was performed as follows. Each of γ-Glu-Val-Gly and cinacalcet was mixed with commercially-available low-fat yogurt (non-fat milk solids content: 10.0%, milk fat content: 1.0%) at a concentration of 0.00001 to 1 g/dl, and the intensity of imparting fat-like richness was measured.
It should be noted that after each sample was dissolved in low-fat yogurt, and a sample, the pH of which was lowered, was adjusted with NaOH so that the pH might be ±0.2 with respect to the pH of the […] free of a sample.
(§2) The sensory score for fat-like richness and smoothness was defined as follows: control (free of sample): 0 point; strong: 3 points; and very strong: 5 points. Then, the test was performed with n=12.

[2] = Fat-like richness and smoothness imparted to low-fat milk, quantitative sensory evaluation test; conditions: for Taste profile / Fat-like richness / Smoothness: Table 8; for Fat-like richness / Smoothness: n=12, control 0, strong 3, very strong 5 points
Protocol: as §1, with “γ-Glu-Cys-Gly (glutathione), γ-Glu-Val-Gly,” for “γ-Glu-Val-Gly”, “γ-Glu-Abu-Gly” for “cinacalcet”, “milk” for “yogurt”, “8.6% or more,” for “10.0%,”, “1.5%)” for “1.0%)”
It should be noted that each peptide was dissolved in low-fat milk, and then a sample, the pH of which was lowered, was adjusted with NaOH so that the pH might be ±0.2 with respect to the pH of the low-fat milk free of peptide.
The sensory score for fat-like richness and smoothness was defined as follows: control (free of peptide): 0 point; strong: 3 points; and very strong: 5 points. Then, the test was performed with n=12. […] As clear from Table 6, it was confirmed that the peptide imparted fat-like richness and smoothness to low-fat milk at a lower concentration than glutathione.
as §1, with “milk” for “yogurt”, “8.6% or more,” for “10.0%,”, “1.5%)” for “1.0%)”
It should be noted that each sample was dissolved in low-fat milk, and then a sample, the pH of which was lowered, was adjusted with NaOH so that the pH might be ±0.2 with respect to the pH of the low-fat milk free of a sample.
as §2

[3] = Fat-like richness and smoothness imparted to low-calorie mayonnaise, quantitative sensory evaluation test; conditions: for Taste profile / Fat-like richness / Smoothness: Table 9; for Fat-like richness / Smoothness: control 0, strong 3, very strong 5 points
Protocol: In the same manner as that in Example 1 except that commercially-available low-calorie mayonnaise (having a fat content reduced by 50% compared with a normal product) was used instead of low-fat milk, each peptide was measured for its fat-like richness-imparting intensity.
In the same manner as that in Example 2, each sample was measured for its intensity of imparting fat-like richness.

[4] = 0.0001 g/dl in low-calorie mayonnaise
[5] = 0.001 g/dl in low-calorie mayonnaise

Q: What does the source list for C[C@@H](NCCCc1cccc(C(F)(F)F)c1)c1cccc2ccccc12 [Cinacalcet, (R)—N-(3-(3-(trifluoromethyl)phenyl)propyl)-1-(1-naphthyl)ethylamine, reference compound]?
A: Taste profile ([1]; 0.0001 g/dl in low-fat yogurt): Lasting is present in aftertaste.; Fat-like richness ([1]; 0.0001 g/dl in low-fat yogurt): 1.5 points; Smoothness ([1]; 0.0001 g/dl in low-fat yogurt): 2.0 points; Fat-like richness ([1]; 0.001 g/dl in low-fat yogurt (milk fat 1.0%)): 4.0 points; Taste profile ([1]; 0.001 g/dl in low-fat yogurt): Lasting is present in aftertaste.; Smoothness ([1]; 0.001 g/dl in low-fat yogurt): 4.5 points; Taste profile ([2]; 0.0001 g/dl in low-fat milk): Lasting is present in aftertaste.; Fat-like richness ([2]; 0.0001 g/dl in low-fat milk): 1.3 points; Smoothness ([2]; 0.0001 g/dl in low-fat milk): 1.7 points; Taste profile ([2]; 0.001 g/dl in low-fat milk): Thickness and lasting; Fat-like richness ([2]; 0.001 g/dl in low-fat milk): 4.0 points; Smoothness ([2]; 0.001 g/dl in low-fat milk): 4.2 points; concentration at which fat-like richness and smoothness are imparted, compared with γ-Glu-Val-Gly ([2]; low-fat milk, conclusion from Table 8): comparable concentration to γ-Glu-Val-Gly; Taste profile [3, 4]: Lasting is present in aftertaste.; Fat-like richness [3, 4]: 1.8 points; Smoothness [3, 4]: 2.5 points; Taste profile [3, 5]: Thickness and lasting; Fat-like richness [3, 5]: 4.3 points; Smoothness [3, 5]: 4.8 points; concentration at which fat-like richness and smoothness are imparted, compared with γ-Glu-Val-Gly ([3]; low-calorie mayonnaise, conclusion from Table 9): comparable concentration to γ-Glu-Val-Gly
